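Results reflect a 48-hour exposure of cells in 96-well plates to compound at five concentrations. At the GI50, growth is halved.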 The source made the active and inactive calls. Rule as the data show it: active = GI50 up to about 1.1 µM and inactive = higher.
Key:
Test in all cases: NCI-60 cell line screen, 48 h
HCT-116 = system: HCT-116
Hs-578T = system: Hs-578T
A498 = system: A498
KM12 = system: KM12
LOX IMVI = system: LOX IMVI
ACHN = system: ACHN
OVCAR-3 = system: OVCAR-3
NCI/ADR-RES = system: NCI/ADR-RES
NCI-H522 = system: NCI-H522
CAKI-1 = system: CAKI-1
SNB-78 = system: SNB-78
NCI-H23 = system: NCI-H23
OVCAR-5 = system: OVCAR-5
SN12C = system: SN12C
M19-MEL = system: M19-MEL
IGROV-1 = system: IGROV-1
SNB-19 = system: SNB-19
TK-10 = system: TK-10
KM-20L2 = system: KM-20L2
UACC-257 = system: UACC-257

Measured: GI50

CC1=C2C(=O)[C@H]3[C@@H](CC=C4C[C@@H](O)CC[C@@]43C)[C@@H]2CC[C@]12O[C@@H]1C[C@H](C)CN[C@H]1[C@H]2C [JERVINE]
inactive: HCT-116 > 46 µM | Hs-578T > 100 µM | A498 > 41.2 µM | KM12 > 50.4 µM | LOX IMVI > 41.1 µM | ACHN > 41.3 µM | OVCAR-3 > 40.6 µM | NCI/ADR-RES > 100 µM | NCI-H522 > 42.2 µM | CAKI-1 > 40.8 µM | SNB-78 19.2 µM | NCI-H23 > 42.3 µM | OVCAR-5 > 100 µM | SN12C > 43.4 µM | M19-MEL 29.4 µM | IGROV-1 > 54.7 µM | SNB-19 > 41.7 µM | TK-10 > 37.2 µM | KM-20L2 28.9 µM | UACC-257 > 49.3 µM

From ChEMBL document CHEMBL1201862, “PubChem BioAssay data set” (2004)
